Data set [1] deals with souris mâles de souche swiss. The experiment in a line: Rotating rod test (Rota-Rod). The settings on record: Mus musculus, po, male Swiss mice, 10 per dose, effective if the mouse falls off the rod in less than two minutes, read-out: Rota-Rod v. o. DE50. The class given is in vivo. The source says:
On réalise cet essai sur des souris mâles de souche swiss. On place la souris sur une tige de bois d'un diamètre de 3 crn, tournant à raison de cinq tours par minute. On choisit les souris qui peuvent rester sur la tige pendant au moins trois minutes au cours d'essais successifs et on les rassemble par groupe de dix pour l'essai de chaque dose.
Si la souris tombe de la tige en moins de deux minutes, on considère le composé essayé comme efficace.
Les résultats sont exprimés en DE50 selon: N. W. Dunham et T. S. Miva (J. Amer. Pharm. Asso., 1957, 46,208).
For orientation: In the rotarod test animals must keep their balance on a rotating rod.

The nature of data set [2]: Oral toxicity, lethal dose 50 (Miller and Tainter method). To be noted: in vivo, lethal dose 50 calculated by the Miller and Tainter method, read-out: Toxicité v. o. DE50. An excerpt:
Les composés les plus actifs de la présente invention ont été soumis à des contrôles de toxicité.
La dose létale 50 et les activités pharmacologiques sont rapportées dans le Tableau (I).
La dose létale a été recherchée par voie orale et calculée selon la méthode de Miller et Tainter (Proc. Soc. Exper. Biol. Med., 1944,57,261).

The subject of data set [3] is souris mâles de souche swiss. The experiment in a line: Pentetrazol antagonism (protection against tonic convulsions). The format is in vivo. To be noted: Mus musculus, po, 60 min before 125 mg/kg s.c. pentetrazol, male Swiss mice, observed for two hours, read-out: Pentétrazol v. o. DE50. On the procedure:
Ce test est réalisé sur un groupe de dix souris mâles de souche Swiss. Dans un délai de quinze minutes après l'injection sous-cutanée de 125 mg/kg de pentétrazol, les souris ont des convulsions toniques dont l'issue est fatale. Pour l'essai, on administre par voie orale les composés soixante minutes avant l'injection de pentétrazol. Les animaux sont observes pendant deux heures après administration du pentétrazol.
Les résultats sont exprimés par la dose efficace DE50 selon Goodmann et Coll. (J. Pharmacol. 108, 1953).

SMILES strings stand for the structures.

On to `CN(C(=O)CNC1CCCCC1)c1ccc(Br)cc1C(=O)c1ccccc1` [Br], for which the ED50 in data set [1] was found to be 22 mg/kg. The LD50 in data set [2] is above 1000 mg/kg.

In the case of `CN(C(=O)CNC1CCCCC1)c1ccc(C(F)(F)F)cc1C(=O)c1ccccc1` [Exemple 12, N-méthyl N'-cyclohexyl (benzoyf-2' trifluorométhyl-4') glycylanilide], the ED50 in data set [1] is 8 mg/kg; in data set [3], 1 mg/kg. Also, the LD50 in data set [2] was above 1000 mg/kg.

Regarding `CN(C(=O)CNC1CCCCC1)c1ccc(C#N)cc1C(=O)c1ccccc1` [Exemple 13, Chlorhydrate de N-méthyl N'-cyclohexyl (benzoyl-2' cyano-4') glycylanilide], the ED50 was found to be 7 mg/kg in data set [1] and 0.9 mg/kg in data set [3]. Also, in data set [2], the LD50 was above 1000 mg/kg.

Source of the values: EP0015214B1, “Derivatives of substituted 2-benzoyl glycinanilides, their preparation and their use in anxiolytic medicaments” (PIERRE FABRE S.A., priority 1979, dated 1980).
